Columns and labels:
Assay in all cases: relative viability (nuclei count vs DMSO), 5 days (fraction); higher = more cells survive
COR-L23 = tested on: COR-L23
Outline: (§1)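 One day after seeding in 1536-well plates, lung cancer cell lines were dosed by pin tool. Dosing was either single-drug or a fixed anchor-drug dose plus five library-drug doses (not always all listed) in √10 steps. After 5 days, nuclei were stained in one fix-and-stain step and counted on 4× images, and relative viability is the nuclei count of treated wells over that of vehicle wells, given as the median of duplicate plates.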

SK-MES-1 = tested on: SK-MES-1
Outline: as §1

NCI-H1437 = tested on: NCI-H1437
Outline: as §1

NCI-H1651 = tested on: NCI-H1651
Outline: as §1

Calu-6 = tested on: Calu-6
Outline: as §1

EBC-1 = tested on: EBC-1
Outline: as §1

NCI-H1299 = tested on: NCI-H1299
Outline: as §1

IA-LM = tested on: IA-LM
Outline: as §1

ChaGo-K-1 = tested on: ChaGo-K-1
Outline: as §1

SW 1573 = tested on: SW 1573
Outline: as §1

ABC-1 = tested on: ABC-1
Outline: as §1

NCI-H1703 = tested on: NCI-H1703
Outline: as §1

A549 = tested on: A549
Outline: as §1

Structure (SMILES): O=c1cc(N2CCOCC2)oc2c(-c3cccc4c3sc3ccccc34)cccc12 + CS(=O)(=O)N1CCN(Cc2cc3nc(-c4cccc5[nH]ncc45)nc(N4CCOCC4)c3s2)CC1 [Pictilisib] (partner 1 µM)
- relative viability (COR-L23; first compound 0.01 µM): 0.765
- relative viability (COR-L23; first compound 0.03162 µM): 0.855
- relative viability (COR-L23; first compound 0.1 µM): 0.846
- relative viability (COR-L23; first compound 0.3162 µM): 0.757
- relative viability (COR-L23; first compound 1 µM): 0.778
- relative viability (SK-MES-1; first compound 0.01 µM): 0.327
- relative viability (SK-MES-1; first compound 0.03162 µM): 0.314
- relative viability (SK-MES-1; first compound 0.1 µM): 0.396
- relative viability (SK-MES-1; first compound 0.3162 µM): 0.31
- relative viability (SK-MES-1; first compound 1 µM): 0.362
- relative viability (NCI-H1437; first compound 0.01 µM): 0.455
- relative viability (NCI-H1437; first compound 0.03162 µM): 0.456
- relative viability (NCI-H1437; first compound 0.1 µM): 0.542
- relative viability (NCI-H1437; first compound 0.3162 µM): 0.478
- relative viability (NCI-H1437; first compound 1 µM): 0.412
- relative viability (NCI-H1651; first compound 0.01 µM): 0.451
- relative viability (NCI-H1651; first compound 0.03162 µM): 0.642
- relative viability (NCI-H1651; first compound 0.1 µM): 0.636
- relative viability (NCI-H1651; first compound 0.3162 µM): 0.615
- relative viability (NCI-H1651; first compound 1 µM): 0.56
- relative viability (Calu-6; first compound 0.01 µM): 0.879
- relative viability (Calu-6; first compound 0.03162 µM): 0.917
- relative viability (Calu-6; first compound 0.1 µM): 1.06
- relative viability (Calu-6; first compound 0.3162 µM): 0.9
- relative viability (Calu-6; first compound 1 µM): 1.04
- relative viability (EBC-1; first compound 0.01 µM): 0.409
- relative viability (EBC-1; first compound 0.03162 µM): 0.35
- relative viability (EBC-1; first compound 0.1 µM): 0.338
- relative viability (EBC-1; first compound 0.3162 µM): 0.378
- relative viability (EBC-1; first compound 1 µM): 0.371
- relative viability (NCI-H1299; first compound 0.01 µM): 0.922
- relative viability (NCI-H1299; first compound 0.03162 µM): 0.688
- relative viability (NCI-H1299; first compound 0.1 µM): 0.897
- relative viability (NCI-H1299; first compound 0.3162 µM): 0.816
- relative viability (NCI-H1299; first compound 1 µM): 0.801
- relative viability (IA-LM; first compound 0.01 µM): 0.304
- relative viability (IA-LM; first compound 0.03162 µM): 0.34
- relative viability (IA-LM; first compound 0.1 µM): 0.271
- relative viability (IA-LM; first compound 0.3162 µM): 0.357
- relative viability (IA-LM; first compound 1 µM): 0.337
- relative viability (ChaGo-K-1; first compound 0.01 µM): 0.648
- relative viability (ChaGo-K-1; first compound 0.03162 µM): 0.791
- relative viability (ChaGo-K-1; first compound 0.1 µM): 0.448
- relative viability (ChaGo-K-1; first compound 0.3162 µM): 0.901
- relative viability (ChaGo-K-1; first compound 1 µM): 0.663
- relative viability (SW 1573; first compound 0.01 µM): 0.549
- relative viability (SW 1573; first compound 0.03162 µM): 0.489
- relative viability (SW 1573; first compound 0.1 µM): 0.48
- relative viability (SW 1573; first compound 0.3162 µM): 0.452
- relative viability (SW 1573; first compound 1 µM): 0.471
- relative viability (ABC-1; first compound 0.01 µM): 0.698
- relative viability (ABC-1; first compound 0.03162 µM): 0.834
- relative viability (ABC-1; first compound 0.1 µM): 0.745
- relative viability (ABC-1; first compound 0.3162 µM): 0.888
- relative viability (ABC-1; first compound 1 µM): 0.755
- relative viability (NCI-H1703; first compound 0.01 µM): 0.245
- relative viability (NCI-H1703; first compound 0.03162 µM): 0.221
- relative viability (NCI-H1703; first compound 0.1 µM): 0.223
- relative viability (NCI-H1703; first compound 0.3162 µM): 0.253
- relative viability (NCI-H1703; first compound 1 µM): 0.252
- relative viability (A549; first compound 0.01 µM): 0.582
- relative viability (A549; first compound 0.03162 µM): 0.526
- relative viability (A549; first compound 0.1 µM): 0.601
- relative viability (A549; first compound 0.3162 µM): 0.516
- relative viability (A549; first compound 1 µM): 0.599

Source: the supplement of paper PMC10307832
